{"source": "ChEMBL document CHEMBL5634071", "about": "“Fluorine in anti-HIV drugs approved by FDA from 1981 to 2023” (Eur J Med Chem, 2023)", "key": {"[1]": {"target": "T1, DNA polymerase subunit gamma-1 (Homo sapiens) (UniProt P54098)", "T1 sequence (whole entry)": "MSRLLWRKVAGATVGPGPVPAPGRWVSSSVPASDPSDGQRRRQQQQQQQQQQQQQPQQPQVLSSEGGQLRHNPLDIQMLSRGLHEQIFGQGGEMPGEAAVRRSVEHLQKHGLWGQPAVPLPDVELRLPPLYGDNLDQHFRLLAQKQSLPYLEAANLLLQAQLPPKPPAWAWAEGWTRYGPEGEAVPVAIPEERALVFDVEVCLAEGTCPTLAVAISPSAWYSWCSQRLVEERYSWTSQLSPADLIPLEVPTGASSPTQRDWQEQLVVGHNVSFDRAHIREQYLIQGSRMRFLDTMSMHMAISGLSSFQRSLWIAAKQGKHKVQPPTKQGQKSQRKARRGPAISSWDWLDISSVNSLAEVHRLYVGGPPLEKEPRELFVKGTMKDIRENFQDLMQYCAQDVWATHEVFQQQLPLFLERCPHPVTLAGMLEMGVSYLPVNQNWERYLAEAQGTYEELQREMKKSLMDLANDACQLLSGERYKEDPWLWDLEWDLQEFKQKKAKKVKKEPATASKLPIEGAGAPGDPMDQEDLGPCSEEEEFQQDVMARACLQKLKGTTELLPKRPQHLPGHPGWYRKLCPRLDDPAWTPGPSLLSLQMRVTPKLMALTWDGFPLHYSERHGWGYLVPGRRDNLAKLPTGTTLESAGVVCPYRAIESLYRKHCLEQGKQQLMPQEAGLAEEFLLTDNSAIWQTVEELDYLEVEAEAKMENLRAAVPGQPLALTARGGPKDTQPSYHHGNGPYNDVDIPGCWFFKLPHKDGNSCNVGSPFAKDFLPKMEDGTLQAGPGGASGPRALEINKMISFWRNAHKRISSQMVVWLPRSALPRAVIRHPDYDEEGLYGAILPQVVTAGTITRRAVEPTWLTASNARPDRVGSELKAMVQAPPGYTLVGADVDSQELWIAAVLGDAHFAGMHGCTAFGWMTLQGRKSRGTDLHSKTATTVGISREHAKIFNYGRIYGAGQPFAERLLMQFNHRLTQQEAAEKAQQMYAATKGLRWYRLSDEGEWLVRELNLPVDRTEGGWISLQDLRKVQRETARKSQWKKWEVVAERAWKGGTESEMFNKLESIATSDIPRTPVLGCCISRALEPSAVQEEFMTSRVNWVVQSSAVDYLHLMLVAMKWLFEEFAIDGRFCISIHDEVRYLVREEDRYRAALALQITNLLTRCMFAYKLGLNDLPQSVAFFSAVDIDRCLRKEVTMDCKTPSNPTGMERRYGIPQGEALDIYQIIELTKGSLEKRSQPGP", "assay": "Binding affinity to human DNA polymerase gamma assessed as polymerization rate"}, "[2]": {"target": "T1, DNA polymerase subunit gamma-1 (Homo sapiens)", "assay": "Ratio of K for biding affinity to human DNA polymerase gamma assessed as polymerization rate to Kd for binding affinity to human DNA polymerase gamma"}, "[3]": {"target": "T2, DNA polymerase subunit gamma-1 (Homo sapiens, UniProt P54098)", "T2 sequence (P54098 whole entry)": "T1 sequence (whole entry)", "assay": "Binding affinity to human DNA polymerase gamma assessed as dissociation constant"}, "[4]": {"test_system": "Human immunodeficiency virus 1", "assay": "Antiviral activity against HIV-1 infected in PBMC (unknown origin) assessed as inhibition of viral replication by ELISA", "format": "functional, organism-based", "details": "Human immunodeficiency virus 1, PBMC"}, "[5]": {"test_system": "Human immunodeficiency virus", "assay": "Antiviral activity agaisnt HIV BAL infected in human PM1 cells assessed as inhibition of viral replication", "format": "functional, organism-based", "details": "Human immunodeficiency virus 1, BAL"}, "hERG": {"target": "hERG (Homo sapiens, UniProt Q12809)", "sequence (Q12809 whole entry)": "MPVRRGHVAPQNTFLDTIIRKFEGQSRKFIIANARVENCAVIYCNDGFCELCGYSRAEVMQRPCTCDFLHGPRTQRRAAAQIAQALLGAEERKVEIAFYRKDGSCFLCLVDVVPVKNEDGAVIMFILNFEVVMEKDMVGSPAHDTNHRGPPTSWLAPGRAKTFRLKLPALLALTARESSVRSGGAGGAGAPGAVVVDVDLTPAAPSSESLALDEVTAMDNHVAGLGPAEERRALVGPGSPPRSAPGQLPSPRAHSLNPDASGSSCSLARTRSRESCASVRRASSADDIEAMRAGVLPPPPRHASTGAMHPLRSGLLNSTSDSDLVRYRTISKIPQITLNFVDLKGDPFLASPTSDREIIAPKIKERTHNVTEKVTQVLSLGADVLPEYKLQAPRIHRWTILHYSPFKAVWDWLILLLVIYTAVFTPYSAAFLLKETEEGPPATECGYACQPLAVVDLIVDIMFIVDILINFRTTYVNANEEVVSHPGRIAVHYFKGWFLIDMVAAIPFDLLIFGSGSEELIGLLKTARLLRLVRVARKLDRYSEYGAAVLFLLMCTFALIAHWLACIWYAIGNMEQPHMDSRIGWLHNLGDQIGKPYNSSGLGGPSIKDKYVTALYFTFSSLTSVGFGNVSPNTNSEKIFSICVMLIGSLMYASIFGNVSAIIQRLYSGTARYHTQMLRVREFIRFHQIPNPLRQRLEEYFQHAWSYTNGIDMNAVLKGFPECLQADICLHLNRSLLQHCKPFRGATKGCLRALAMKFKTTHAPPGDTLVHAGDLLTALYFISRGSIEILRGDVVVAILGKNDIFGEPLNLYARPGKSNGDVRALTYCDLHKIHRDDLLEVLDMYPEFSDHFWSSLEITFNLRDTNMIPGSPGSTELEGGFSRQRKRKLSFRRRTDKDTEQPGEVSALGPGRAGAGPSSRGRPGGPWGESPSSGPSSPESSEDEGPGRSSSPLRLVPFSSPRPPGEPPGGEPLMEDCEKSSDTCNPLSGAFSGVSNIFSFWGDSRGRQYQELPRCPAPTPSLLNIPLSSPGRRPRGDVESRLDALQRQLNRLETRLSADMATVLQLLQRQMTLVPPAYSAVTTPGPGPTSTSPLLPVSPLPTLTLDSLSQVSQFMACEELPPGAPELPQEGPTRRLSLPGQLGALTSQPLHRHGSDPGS", "assay": "Inhibition of tritium labelled dofetilide binding to hERG expressed in HEK293 cells at 300 nM relative to control", "format": "toxicity, cell-based", "details": "HEK293 cells that express hERG, probe tritium labelled dofetilide"}, "[6]": {"test_system": "Human immunodeficiency virus 1", "assay": "Antiviral activity against HIV-1 RF infected in human MT4 cells assessed as reduction in viral RNA production measured after 3 days by plaque assay", "format": "functional", "details": "Human immunodeficiency virus 1, RF, MT4, 72 h; time 3 day"}, "[7]": {"assay": "Half-life in human administered as single dose", "format": "ADME"}, "[8]": {"assay": "Inhibition of wildtype HIV Reverse transcriptase", "set-up": "species or system Human immunodeficiency virus"}, "[9]": {"test_system": "Human immunodeficiency virus 1", "assay": "Antiviral activity against NNRTI-resistant HIV-1 harboring K103N/Y181C double mutant assessed as inhibition of viral growth", "format": "functional"}, "[10]": {"test_system": "Human immunodeficiency virus 1", "assay": "Antiviral activity against NNRTI-resistant HIV-1 harboring K103N mutant assessed as inhibition of viral growth", "format": "functional"}, "[11]": {"test_system": "Human immunodeficiency virus 1", "assay": "Antiviral activity against NNRTI-resistant HIV-1 harboring Y181C mutant assessed as inhibition of viral growth", "format": "functional"}, "[12]": {"target": "Human immunodeficiency virus type 1 protease (Human immunodeficiency virus 1, UniProt Q72874)", "assay": "Inhibition of HIV-1 protease"}, "[13]": {"test_system": "Human immunodeficiency virus 1", "assay": "Antiviral activity against HIV-1 IIIB infected in human H9 cells", "format": "functional, organism-based", "details": "Human immunodeficiency virus 1, IIIB"}, "[14]": {"test_system": "Human immunodeficiency virus 1", "assay": "Antiviral activity against HIV-1 LAV infected in human CEM cells", "format": "functional, organism-based", "details": "Human immunodeficiency virus 1, LAV, CCRF-CEM"}, "[15]": {"assay": "Cytotoxicity against human CEM cells measured after 6 days", "details": "CEM cells (CCRF-CEM)"}, "[16]": {"target": "C-C chemokine receptor type 5 (Homo sapiens, UniProt P51681)", "sequence (P51681 whole entry)": "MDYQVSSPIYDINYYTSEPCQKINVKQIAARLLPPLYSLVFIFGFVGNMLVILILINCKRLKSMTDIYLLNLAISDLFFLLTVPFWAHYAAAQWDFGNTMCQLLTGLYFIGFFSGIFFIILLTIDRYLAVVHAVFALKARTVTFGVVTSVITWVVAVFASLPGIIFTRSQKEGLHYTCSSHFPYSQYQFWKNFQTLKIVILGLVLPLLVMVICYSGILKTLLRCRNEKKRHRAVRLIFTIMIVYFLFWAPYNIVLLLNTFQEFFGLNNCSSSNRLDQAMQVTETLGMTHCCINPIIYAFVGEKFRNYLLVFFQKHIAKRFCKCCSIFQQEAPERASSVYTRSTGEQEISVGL", "assay": "Displacement of [125I]MIP-1alpha from CCR5 receptor (unknown origin) expressed in HEK293 cells", "format": "cell-based"}, "[17]": {"assay": "Cytotoxicity against human CEM cells", "format": "toxicity, cell-based", "details": "CEM cells (CCRF-CEM)"}, "[18]": {"test_system": "Human immunodeficiency virus", "assay": "Antiviral activity against HIV IIIB infected in human MT4 cells", "format": "functional, organism-based", "details": "Human immunodeficiency virus 1, IIIB"}}}
{"smiles": "Nc1ccn([C@H]2C[C@H](O)[C@@H](COP(=O)(O)OP(=O)(O)OP(=O)(O)O)O2)c(=O)n1", "note": "[DEOXYCYTIDINE TRIPHOSPHATE]", "values": [{"measurement": "K", "setting": "[1]", "result": 44, "unit": "s⁻¹"}, {"measurement": "Ratio", "setting": "[2]", "result": 40, "unit": "µM⁻¹ s⁻¹"}, {"measurement": "Kd", "setting": "[3]", "result": 1100, "unit": "nM"}]}
{"smiles": "Cc1cn([C@H]2C[C@H](N=[N+]=[N-])[C@@H](CO)O2)c(=O)[nH]c1=O", "note": "[ZIDOVUDINE]", "values": [{"measurement": "IC50", "setting": "[4]", "result": 55, "unit": "nM"}]}
{"smiles": "O=c1[nH]cnc2c1ncn2[C@H]1CC[C@@H](CO)O1", "note": "[DIDANOSINE]", "values": [{"measurement": "IC50", "setting": "[4]", "result": 760, "unit": "nM"}]}
{"smiles": "Cc1nc2ccccc2n1C1C[C@H]2CC[C@@H](C1)N2CC[C@H](NC(=O)C1CCC1)c1ccccc1", "note": "(stereo not given in full)", "values": [{"measurement": "IC90", "setting": "[5]", "result": 3, "unit": "nM"}, {"measurement": "inhibition at 0.3 µM", "setting": "hERG", "result": 80, "unit": "%"}]}
{"smiles": "O=C1Nc2ccc(Cl)cc2[C@@](C#CC2CC2)(C(F)(F)F)O1", "note": "[EFAVIRENZ]", "values": [{"measurement": "IC90", "setting": "[6]", "result": 1.7, "unit": "nM"}, {"measurement": "half-life", "setting": "[7]", "result": "< 52", "unit": "h"}]}
{"smiles": "NS(=O)(=O)c1ccc(NC(=O)COc2cccc(Oc3ccccc3)c2)c(Cl)c1", "values": [{"measurement": "IC50", "setting": "[8]", "result": 52, "unit": "nM"}]}
{"smiles": "Cn1c(Cn2ccc(C(F)(F)F)c(Oc3cc(Cl)cc(C#N)c3)c2=O)n[nH]c1=O", "note": "[DORAVIRINE]", "values": [{"measurement": "IC95", "setting": "[9]", "result": 55, "unit": "nM"}, {"measurement": "IC95", "setting": "[10]", "result": 43, "unit": "nM"}, {"measurement": "IC95", "setting": "[11]", "result": 27, "unit": "nM"}]}
{"smiles": "CCC[C@@]1(CCc2ccccc2)CC(O)=C([C@@H](CC)c2cccc(NS(=O)(=O)c3ccc(C#N)cn3)c2)C(=O)O1", "values": [{"measurement": "Ki", "setting": "[12]", "result": 0.1, "unit": "nM"}, {"measurement": "IC50", "setting": "[13]", "result": 490, "unit": "nM"}, {"measurement": "IC90", "setting": "[13]", "result": 1000, "unit": "nM"}]}
{"smiles": "CCC[C@]1(CCc2ccccc2)CC(O)=C([C@H](CC)c2cccc(NS(=O)(=O)c3ccc(C#N)cn3)c2)C(=O)O1", "values": [{"measurement": "Ki", "setting": "[12]", "result": 0.04, "unit": "nM"}, {"measurement": "IC50", "setting": "[13]", "result": 110, "unit": "nM"}, {"measurement": "IC90", "setting": "[13]", "result": 890, "unit": "nM"}]}
{"smiles": "Nc1nc(=O)n([C@H]2CS[C@@H](CO)O2)cc1F", "values": [{"measurement": "IC50", "setting": "[14]", "result": 1400, "unit": "nM"}, {"measurement": "CC50 at 144 h", "setting": "[15]", "result": "> 100000", "unit": "nM"}]}
{"smiles": "CCC[C@]1(CCc2ccccc2)CC(O)=C([C@@H](CC)c2cccc(NS(=O)(=O)c3ccc(C#N)cn3)c2)C(=O)O1", "values": [{"measurement": "Ki", "setting": "[12]", "result": 0.12, "unit": "nM"}, {"measurement": "IC50", "setting": "[13]", "result": "> 1000", "unit": "nM"}, {"measurement": "IC90", "setting": "[13]", "result": "> 1000", "unit": "nM"}]}
{"smiles": "Cc1nnc(C(C)C)n1C1CC2CCC(C1)N2CC[C@H](NC(=O)C1CCCC1)c1ccccc1", "note": "(stereo not given in full)", "values": [{"measurement": "IC90", "setting": "[5]", "result": 1.6, "unit": "nM"}]}
{"smiles": "Nc1nc(=O)n(C2CSC(CO)O2)cc1F", "note": "(racemic) [EMTRICITABINE, (+/-)-]", "values": [{"measurement": "IC50", "setting": "[14]", "result": 80, "unit": "nM"}, {"measurement": "CC50 at 144 h", "setting": "[15]", "result": "> 100000", "unit": "nM"}]}
{"smiles": "Cc1nc2ccccc2n1C1CCN(CC[C@@H](NC(=O)c2ccccc2)c2ccccc2)CC1", "values": [{"measurement": "IC50", "setting": "[16]", "result": 580, "unit": "nM"}]}
{"smiles": "Cc1nc2ccccc2n1C1CCN(CCC(NC(=O)c2ccccc2)c2ccccc2)CC1", "note": "(stereo not given)", "values": [{"measurement": "IC50", "setting": "[16]", "result": 45, "unit": "nM"}, {"measurement": "IC50", "setting": "[5]", "result": 210, "unit": "nM"}]}
{"smiles": "Nc1ccn([C@H]2CSC(CO)O2)c(=O)n1", "note": "(mixture of isomers)", "values": [{"measurement": "IC50", "setting": "[14]", "result": 70, "unit": "nM"}, {"measurement": "CC50", "setting": "[17]", "result": 52600, "unit": "nM"}]}
{"smiles": "Cc1nc2ccccc2n1C1CCN(CC[C@H](NC(=O)c2ccccc2)c2ccccc2)CC1", "values": [{"measurement": "IC50", "setting": "[16]", "result": 13, "unit": "nM"}]}
{"smiles": "O=C1Nc2ccc(Cl)cc2[C@@](C#Cc2ccccn2)(C2CC2)N1", "values": [{"measurement": "IC50", "setting": "[18]", "result": 12, "unit": "nM"}]}
{"smiles": "Cc1nc2ccccc2n1C1CCN(CC[C@H](NC(=O)C2CCC2)c2ccccc2)CC1", "values": [{"measurement": "IC50", "setting": "[5]", "result": 73, "unit": "nM"}]}
{"smiles": "Nc1ccn([C@@H]2CS[C@H](COP(=O)(O)OP(=O)(O)OP(=O)(O)O)O2)c(=O)n1", "note": "[LAMIVUDINE TRIPHOSPHATE]", "values": [{"measurement": "K", "setting": "[1]", "result": 0.13, "unit": "s⁻¹"}, {"measurement": "Ratio", "setting": "[2]", "result": 0.01, "unit": "µM⁻¹ s⁻¹"}, {"measurement": "Kd", "setting": "[3]", "result": 13000, "unit": "nM"}]}
{"smiles": "Cc1nnc(C(C)C)n1C1CC2CCC(C1)N2CC[C@H](NC(=O)C1CCOCC1)c1ccccc1", "note": "(stereo not given in full)", "values": [{"measurement": "IC90", "setting": "[5]", "result": 125, "unit": "nM"}, {"measurement": "inhibition at 0.3 µM", "setting": "hERG", "result": 0, "unit": "%"}]}
